Reference: patent US7812014B2, “Bicyclic 6-alkylidene-penems as β-lactamase inhibitors” (priority 2002, dated 2010)
Where a name gives a salt, the structure may show the parent alone. Read-outs that look alike come from different tables or passages of the source.

Legend:
[1] = test system: Clinical isolates that have been adapted to cause infection in mice; test: In vivo antibacterial protection, 7 day survival of infected mice; design: species or system mice strain CD-1
Source text: In Vivo Antibacterial Protection
Female mice strain CD-1, approximately 18-22 grams, were received from Charles River Laboratories and quarantined 7 days prior to use. In addition, mice may be rendered neutropenic using cytoxan.
Clinical isolates that have been adapted to cause infection in mice, are used in the experiment, including infections with strains of E. coli, K. pneumoniae, M. morganii, E. cloacae, S. marcescens, C. freundii, staphylococci, streptococci, P. aeruginosa and N. gonorrhoeae.
Mice are challenged by injecting 0.5 ml intraperitoneally or 0.05 ml intranasally of a predetermined bacterial inoculum suspended in broth, saline or hog gastric mucin (supplemented with dried bovine hemoglobin for N. gonorrhoeae). […] Antibacterial doses (dose concentration prepared by two fold serial dilutions of the antibiotic) are dissolved or suspended in 0.2% aqueous agar or methocel, phosphate buffered saline or an adjuvant are administered orally, subcutaneously or intravenously in the following manner: • a) Orally or subcutaneously: Dose volume of 0.5 ml administered ½ hr after infection. A second dose may be administered 3 hr. after infection for treatment of infections with more virulent organisms. • b) Intravenously: Dose volume of 0.2 ml, administered ½ hr. after infection. For the treatment of infections with more virulent organisms, more doses, up to 48 hr may be administered. (Intravenous dosing will not exceed 3 doses/24 hr period.) • c) Oral pretreatment: Under special circumstances, the pH of the stomach needs to be adjusted in order to increase the gastric stability of the antibiotic. For this purpose, 0.5 ml of phosphate buffered saline (pH7.8, 0.06M) (or specific approved adjuvant) is administered orally ½ hr after infection, followed 5 minutes later by 0.5 ml of antibiotic (also orally) contained in phosphate buffered saline (pH7.8, 0.06M). Animal Species
A detailed explanation as to the number of animals needed for the determination of in vivo efficacy follows: • A) Novel antibiotics are tested at 5 different dose levels with 5 mice per dose level at each of three routes of administration (oral, subcutaneous and intravenous). […] This would require 25 mice/route with 3 routes/antibiotic or 75 mice per novel compound tested. One to two novel antibiotics will be tested per experiment (75-150 mice) • B) The effectiveness of the new compound must be compared to that of a standard, or antibiotic of known effectiveness. Known or previously tested antibiotics are tested at 5 dose levels with 5 mice per dose level by a single route of administration, for a total of 25 mice/antibiotic. Usually 3-6 antibiotics will be tested per experiment. (75-150 mice). • C) Untreated controls—In each of the above tests, untreated animals are infected with 3 different concentrations of bacterial inoculum with 10 mice per concentration (30 mice total in each and every test). These untreated controls are used to determine and maintain the infection level between 10-100 LD50s as required for test to test comparison and validity. Determination of Protective Effects of Antibacterial Agents:
The protective effects of the antibacterial agent(s) are measured by the survival of the infected untreated as compared to the treated animals. […] A census of survivors is taken twice daily and at that time dead as well as moribund animals are removed. […] The test is performed three times on separate days to provide a statistically valid number of animals and to minimize variation in test results on a day to day and test to test basis.

[2] = target: class A β-lactamase Imi-1 (Enterobacter cloacae, UniProt Q46991); test: IC50 determination, β-lactamase inhibition (nitrocefin, spectrophotometric); format: biochemical; conditions: enzyme 7.1 nM; 10 minutes preincubation at 25° C.; nitrocefin 50 μg/ml; pH 7.0; read-out: IC50 (nM) Class A Imi
class A β-lactamase Imi-1, sequence (Q46991 28-292): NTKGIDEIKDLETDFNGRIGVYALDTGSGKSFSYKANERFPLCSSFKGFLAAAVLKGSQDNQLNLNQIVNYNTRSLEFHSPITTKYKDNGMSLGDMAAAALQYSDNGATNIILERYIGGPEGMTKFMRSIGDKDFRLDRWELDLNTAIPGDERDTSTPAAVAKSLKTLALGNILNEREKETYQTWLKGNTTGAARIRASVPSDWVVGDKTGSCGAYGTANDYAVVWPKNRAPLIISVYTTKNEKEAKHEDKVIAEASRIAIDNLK
Experimental: (§1) IC50 Determination for the Penem Inhibitor
(§2) β-Lactamase inhibitory activity of the penem inhibitors was determined spectrophotometrically as described by Bush et al., [Bush, K., Macalintal, C., Rasmussen, B. A., Lee, V. and Yang, Y. Antimicrobial Agents and Chemotherapy 1993, 37, 851]. Homogeneously purified class A β-lactamases TEM-1 from E. coli and Imi-1 from Enterobacter cloacae, class B enzyme CcrA from Bacteroides fragilis and class C enzyme AmpC from Enterobacter cloaca were employed in the assay. The enzyme concentrations for TEM-1, Imi-1, CcrA and AmpC were 4.3, 7.1, 1.2 and 2.1 nM, respectively. A wide range of inhibitor concentrations were prepared in 50 mM PO4, pH 7.0 to include the possible IC50 values. The substrate used to initiate the enzyme reaction was nitrocefin at 50 μg/ml in the same buffer as the inhibitor. Initially the enzyme and inhibitor (20 μl each) were preincubated for 10 minutes at 25° C. prior to the addition of 160 μl volume of nitrocefin. Initial rates of hydrolysis were monitored for 5 minutes at 495 nm using a Molecular Devices Spectra Max 250 with kinetic protocol of SoftMax Program. Readings from the Spectra Max 250 were exported and transferred to Microsoft Excel. The percent of inhibition of each inhibitor concentration was calculated based on the control enzyme activity. The inhibitor concentration that caused a 50% reduction in the enzymatic activity (IC50) was determined graphically.

class B enzyme CcrA = class B enzyme CcrA (Bacteroides fragilis, UniProt P25910); test: as above; format: biochemical
class B enzyme CcrA, sequence (P25910 19-249): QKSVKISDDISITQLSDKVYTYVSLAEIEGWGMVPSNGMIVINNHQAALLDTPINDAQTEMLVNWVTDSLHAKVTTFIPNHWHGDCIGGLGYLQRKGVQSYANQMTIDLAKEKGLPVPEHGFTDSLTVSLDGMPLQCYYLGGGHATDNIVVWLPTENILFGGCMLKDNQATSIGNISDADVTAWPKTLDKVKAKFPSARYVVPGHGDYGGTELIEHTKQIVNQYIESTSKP
Experimental: as §1, §2

[3] = target: class A β-lactamase TEM-1 (Escherichia coli, UniProt P62593); test: as above; format: biochemical, E. coli; conditions: enzyme 4.3 nM; 10 minutes preincubation at 25° C.; nitrocefin 50 μg/ml; pH 7.0
class A β-lactamase TEM-1, sequence (P62593 24-286 limits assumed): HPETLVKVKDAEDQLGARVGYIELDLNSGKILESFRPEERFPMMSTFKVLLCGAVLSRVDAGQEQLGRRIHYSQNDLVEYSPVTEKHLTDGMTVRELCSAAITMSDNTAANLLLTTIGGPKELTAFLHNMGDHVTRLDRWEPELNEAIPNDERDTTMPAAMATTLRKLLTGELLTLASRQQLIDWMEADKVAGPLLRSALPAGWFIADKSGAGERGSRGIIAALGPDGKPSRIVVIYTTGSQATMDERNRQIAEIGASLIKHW
Experimental: as §1, §2

class C enzyme AmpC = class C enzyme AmpC (Enterobacter cloacae, UniProt P05364); test: biochemical; design: species or system Enterobacter cloaca
class C enzyme AmpC, sequence (P05364 21-381): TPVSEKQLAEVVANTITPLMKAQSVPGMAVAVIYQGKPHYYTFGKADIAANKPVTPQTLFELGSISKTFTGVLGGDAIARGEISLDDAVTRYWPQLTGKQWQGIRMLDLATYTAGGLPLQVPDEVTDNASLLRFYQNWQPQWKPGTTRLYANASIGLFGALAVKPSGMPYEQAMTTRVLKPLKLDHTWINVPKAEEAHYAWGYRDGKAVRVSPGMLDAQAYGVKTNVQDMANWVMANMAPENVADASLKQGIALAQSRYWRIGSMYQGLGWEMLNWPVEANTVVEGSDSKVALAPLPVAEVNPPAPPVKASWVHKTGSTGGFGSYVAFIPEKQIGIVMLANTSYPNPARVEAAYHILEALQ
Experimental: as §1, §2

[4] = test system: P. aeruginos GC1764 (Ampc); test: Antimicrobial susceptibility testing, microbroth dilution, piperacillin + inhibitor; format: cell-based; conditions: piperacillin combined with constant 4 ug/ml of inhibitor; 35° C. for 18 hours
Experimental: (§3) Antimicrobial susceptibility testing. The in vitro activities of the antibiotics were determined by the microbroth dilution method as recommended by the National Committee for Clinical Laboratory Standards (NCCLS). (NCCLS. 2000. Methods for Dilution Antimicrobial Susceptibility Tests for Bacteria That Grow Aerobically; Approved Standards: M7-A5, vol. 19. National Committe for Clinical Laboratory Standards, Villanova, Pa.). Mueller-Hinton II broth (MHBII) (BBL Cockeysville, Md.), was used for the testing procedure. Microtiter plates containing 50 μl per well of two-fold serial dilutions of piperacillin combined with a constant amount (4 ug/ml) of a B-lactamase inhibitor were inoculated with 50 μl of inoculum to yield the appropriate density (10^5 CFU/ml) in 100·I final volume. The plates were incubated for 18-22 hours at 35° C. in ambient air.

E. Cloacae GC1477 (Ampc) = test: as above; format: cell-based; conditions: piperacillin combined with constant 4 ug/ml of inhibitor; 35° C. for 18 hours
Experimental: as §3

[5] = test system: S. Marcescens GC1781 Sme-1 + Ampc; test: as above; format: cell-based; conditions: piperacillin combined with constant 4 ug/ml of inhibitor; 35° C. for 18 hours
Experimental: as §3

E. Coli GC2920 (IRT-2) = test: as above; format: cell-based; conditions: piperacillin combined with constant 4 ug/ml of inhibitor; 35° C. for 18 hours
Experimental: as §3, with “air. […] The MIC data obtained by the above said procedure are enlisted in Table 2.” for “air.”

E. Coli GC2844 = test: as above; format: cell-based; conditions: piperacillin combined with constant 4 ug/ml of inhibitor; 35° C. for 18 hours
Experimental: as §3, with “air. […] The MIC data obtained by the above said procedure are enlisted in Table 2.” for “air.”

E. Coli GC2847 (TEM-1) = test: as above; format: cell-based; conditions: piperacillin combined with constant 4 ug/ml of inhibitor; 35° C. for 18 hours
Experimental: as §3, with “air. […] The MIC data obtained by the above said procedure are enlisted in Table 2.” for “air.”

E. Coli GC2894 (Ampc) = test: as above; format: cell-based; conditions: piperacillin combined with constant 4 ug/ml of inhibitor; 35° C. for 18 hours
Experimental: as §3, with “air. […] The MIC data obtained by the above said procedure are enlisted in Table 2.” for “air.”

E. Coli GC22033 = test: as above; format: cell-based; conditions: piperacillin combined with constant 4 ug/ml of inhibitor; 35° C. for 18 hours
Experimental: as §3, with “air. […] The MIC data obtained by the above said procedure are enlisted in Table 2.” for “air.”

S. aureus GC2216 = test: as above; format: cell-based; conditions: piperacillin combined with constant 4 ug/ml of inhibitor; 35° C. for 18 hours
Experimental: as §3, with “air. […] The MIC data obtained by the above said procedure are enlisted in Table 2.” for “air.”

[6] = Mus musculus, 168 h, Ratio of Piperacillin vs. Inhibitor 4:1, read-out: ED50
[7] = enzyme 1.2 nM, 10 minutes preincubation at 25° C., nitrocefin 50 μg/ml, pH 7.0, read-out: IC50 (nM) Class B Ccr
[8] = enzyme 2.1 nM, 10 minutes preincubation at 25° C., nitrocefin 50 μg/ml, pH 7.0, read-out: IC50 (nM) Class C AmpC

SMILES	melting point	ED50 [1, 6] [mg/kg]	IC50 [2] [nM]	IC50 (class B enzyme CcrA; [7]) [nM]	IC50 [3] [nM]	IC50 (class C enzyme AmpC; [8]) [nM]	also measured
CN1Cc2nc(/C=C3/C(=O)N4C(C(=O)O)=CS[C@H]34)cn2CC1=O (as salt: sodium) [Example 10, (5R),(6Z)-6-(7-Methyl-6-oxo-5,6,7,8-tetrahydro-imidazo[1,2-a]pyrazin-2-ylmethylene)-7-oxo-4-thia-1-aza-bicyclo[3.2.0]hept-2-ene-2-carboxylic acid sodium salt]	115 to 117 °C (dec.)	–	–	–	–	–	–
O=C(O)C1=CS[C@@H]2/C(=C\c3cc4c(s3)CCN(C(=O)Cc3ccccc3)C4)C(=O)N12 [Example 23]	166 to 169 °C	128	40	140	4.6	7.8	–
O=C(O)C1=CS[C@@H]2/C(=C\c3cc4c(s3)CCN(C(=O)c3cccnc3)C4)C(=O)N12 [Example 22]	195 °C	128	42	110	6.1	11	–
O=C(O)C1=CS[C@@H]2/C(=C\c3cc4c(s3)CCN(Cc3ccccc3)C4)C(=O)N12 [Example 1, (5R,6Z)-6-[(5-benzyl-4,5,6,7-tetrahydrothieno[3,2-c]pyridin-2-yl)methylene]-7oxo-4-thia-1-azabicyclo[3.2.0]hept-2-ene-2-carboxylic acid]	198 °C	–	2.1	260	4.2	12	ED50 ([1]; Mus musculus, 168 h, Ratio of Piperacillin vs. Inhibitor 2:1, read-out: ED50): 32 to 64 mg/kg
O=C([O-])C1=CS[C@@H]2/C(=C\c3cc4n(n3)CSC4)C(=O)N12.[Na+] [Example 12, (5R)(6Z)-7-Oxo-6-(4H-5-thia-1,6a-diazapentalen-2-ylmethylene)-4-thia-1-azabicyclo[3.2.0]hept-2-ene-2-carboxylic acid, sodium salt]	–	20	56	110	1.4	–	IC50 (class C enzyme AmpC): 1.5 nM
CC(=O)N1CCc2sc(/C=C3/C(=O)N4C(C(=O)[O-])=CS[C@H]34)cc2C1.[Na+] (single isomer, unassigned) [Example 34]	–	–	–	–	–	–	ED50 ([1]; Ratio of Piperacillin vs. Inhibitor not given): 32 mg/kg; Minimal Inhibitory Concentration P. aeruginos GC1764 (Ampc) [4]: 32 µg/mL; Minimal Inhibitory Concentration E. Cloacae GC1477 (Ampc) (E. Cloacae GC1477 (Ampc)): >64 µg/mL; Minimal Inhibitory Concentration S. Marcescens GC1781 Sme-1 + Ampc [5]: 2 µg/mL; Minimal Inhibitory Concentration E. Coli GC2920 (IRT-2) (E. Coli GC2920 (IRT-2)): 4 µg/mL; Minimal Inhibitory Concentration E. Coli GC2844 (E. Coli GC2844): 4 µg/mL; Minimal Inhibitory Concentration E. Coli GC2847 (TEM-1) (E. Coli GC2847 (TEM-1)): 32 µg/mL; Minimal Inhibitory Concentration E. Coli GC2894 (Ampc) (E. Coli GC2894 (Ampc)): 32 µg/mL; Minimal Inhibitory Concentration E. Coli GC22033 (E. Coli GC22033): 2 µg/mL
COc1ccc(CN2CCc3sc(/C=C4/C(=O)N5C(C(=O)O)=CS[C@H]45)cc3C2)cc1 [Example 4]	–	–	–	–	–	–	ED50 ([1]; Ratio of Piperacillin vs. Inhibitor 4:1): 32 to 64 mg/kg; Minimal Inhibitory Concentration P. aeruginos GC1764 (Ampc) [4]: 32 µg/mL; Minimal Inhibitory Concentration E. Cloacae GC1477 (Ampc) (E. Cloacae GC1477 (Ampc)): 64 µg/mL; Minimal Inhibitory Concentration S. Marcescens GC1781 Sme-1 + Ampc [5]: 2 µg/mL; Minimal Inhibitory Concentration E. Coli GC2920 (IRT-2) (E. Coli GC2920 (IRT-2)): 2 µg/mL; Minimal Inhibitory Concentration S. aureus GC2216 (S. aureus GC2216): 0.50 µg/mL; Minimal Inhibitory Concentration E. Coli GC2844 (E. Coli GC2844): 2 µg/mL; Minimal Inhibitory Concentration E. Coli GC2847 (TEM-1) (E. Coli GC2847 (TEM-1)): 8 µg/mL; Minimal Inhibitory Concentration E. Coli GC2894 (Ampc) (E. Coli GC2894 (Ampc)): 2 µg/mL; Minimal Inhibitory Concentration E. Coli GC22033 (E. Coli GC22033): 2 µg/mL
O=C(O)C1=CS[C@@H]2/C(=C\c3cc4n(n3)CCS(=O)(=O)C4)C(=O)N12 [Example 24, (5R),(6Z)-6-(5,5-Dioxo-4,5,6,7-tetrahydro-5λ^6-pyrazolo[5,1-c][1,4]thiazin-2-ylmethylene)-7-oxo-4-thia-1-azabicyclo[3.2.0]hept-2-ene-2-carboxylic acid, sodium salt]	–	–	56	–	1.1	1.5	ED50 ([1]; Mus musculus, 168 h, Ratio of Piperacillin vs. Inhibitor not given, read-out: ED50): 64 mg/kg; IC50 (class B enzyme CcrA): 4 nM
